Test results from patent US5827866A, “Peptidyl heterocycles useful in the treatment of thrombin related disorders” (Ortho Pharmaceutical Corporation, priority 1995, dated 1998).

Test: not given
Details: rat, in vivo, iv

Compared with `CNC(Cc1ccccc1)C(=O)N1CCCC1C(=O)NC(CCCNC(=N)N)C(=O)c1nc2ccccc2[nH]1` (centres unmarked) [Compound 21], `CN[C@H](Cc1ccccc1)C(=O)N1CCC[C@H]1C(=O)N[C@@H](CCCNC(=N)N)C(=O)c1nc2ccccc2s1` [Compound 1, N-METHYL-D-PHENYLALANYL-N-[4-[(AMINOIMINOMETHYL)AMINO]-1S-[(BENXOTHIAZOL-2- YL)CARBONYL]BUTYL]-L-PROLINAMIDE] is 3.8-fold higher in t1/2: 5 min for the first, 19 min for the second.

First: CN[C@@H](C(=O)N1CCC[C@H]1C(=O)N[C@@H](CCCNC(=N)N)C(=O)c1nc2ccccc2s1)C1CCCCC1 [Compound 37, N-METHYL-D-CYCLOHEXYLGLYCYL-N-[4-[(AMINOIMINOMETHYL)AMINO]-1S-[(BENXOTHIAZOL-2-YL)CARBONYL]BUTYL]-L-PROLINAMIDE]
Second: CN[C@H](CC1CCCCC1)C(=O)N1CCC[C@H]1C(=O)N[C@@H](CCCNC(=N)N)C(=O)c1nc2ccccc2s1 [Compound 29, N-METHYL-D-CYCLOHEXYLALANYL-N-[4-[(AMINOIMINOMETHYL)AMINO]-1S-[(BENXOTHIAZOL-2-YL)CARBONYL]BUTYL]-L-PROLINAMIDE]
The t1/2 of the first is 3-fold higher: 42 min for the first, 14 min for the second.

`CCOC(=O)c1csc(C(=O)[C@H](CCCNC(=N)N)NC(=O)[C@@H]2CCCN2C(=O)[C@@H](Cc2ccccc2)NC)n1` [Compound 19] and `CN[C@H](Cc1ccccc1)C(=O)N1CCC[C@H]1C(=O)N[C@@H](CCCNC(=N)N)C(=O)c1nc(C(=O)O)cs1` [Compound 54] are within 1.5-fold of each other in t1/2: 14 min for the first, 15 min for the second.

Going from `CN[C@H](Cc1ccccc1)C(=O)N1CCC[C@H]1C(=O)N[C@@H](CCCNC(=N)N)C(=O)c1nc2ccc(F)cc2s1` [Compound 17] to `CN[C@H](Cc1ccccc1)C(=O)N1CCC[C@H]1C(=O)N[C@@H](CCCNC(=N)N)C(=O)c1nc2ccc(CO)cc2s1` [Compound 15], the t1/2 rises from 8 min to 16 min (2-fold).

`CNC(C(=O)N1CCCC1C(=O)NC(CCCNC(=N)N)C(=O)c1nc2ccccc2s1)c1ccccc1` [Compound 33, N-METHYL-D-PHENYLGLYCYL-N-[4-[(AMINOIMINOMETHYL)AMINO]-1S-[(BENXOTHIAZOL-2- YL)CARBONYL]BUTYL]-L-PROLINAMIDE] and `CN[C@H](Cc1ccc(F)cc1)C(=O)N1CCC[C@H]1C(=O)N[C@@H](CCCNC(=N)N)C(=O)c1nc2ccccc2s1` [Compound 32, N-METHYL-D-(4-FLUOROPHENYL)ALANYL-N-[4-[(AMINOIMINOMETHYL)AMINO)-1S-[(BENXOTHIAZOL-2-YL)CARBONYL]BUTYL]-L-PROLINAMIDE] are within 1.5-fold of each other in t1/2: 18 min for the first, 19 min for the second.

Going from `CN[C@H](Cc1ccccc1)C(=O)N1CCC[C@H]1C(=O)N[C@@H](CCCNC(=N)N)C(=O)c1nc2ccc(C(=O)O)cc2s1` [Compound 13] to `CN[C@H](Cc1ccccc1)C(=O)N1CCC[C@H]1C(=O)N[C@@H](CCCNC(=N)N)C(=O)c1nc2ccc(C(=O)OC)cc2s1` [Compound 12], the t1/2 rises from 25 min to 43 min (1.7-fold).

`CN[C@H](Cc1ccccc1)C(=O)N1CCC[C@H]1C(=O)N[C@@H](CCCNC(=N)N)C(=O)c1nc2c(s1)CCCC2` [Compound 51] and `CNC(Cc1ccccc1)C(=O)N1CCCC1C(=O)NC(CCCNC(=N)N)C(=O)c1nccs1` (centres unmarked) [Compound 4] are within 1.5-fold of each other in t1/2: 17 min for the first, 16 min for the second.

`CN[C@H](Cc1ccccc1)C(=O)N1CCC[C@H]1C(=O)N[C@@H](CCCNC(=N)N)C(=O)c1nc2ccc3ccccc3c2s1` [Compound 52] and `CC(=O)N[C@H](Cc1ccccc1)C(=O)N1CCC[C@H]1C(=O)N[C@@H](CCCNC(=N)N)C(=O)c1nc2ccccc2s1.O=C(O)C(F)(F)F` [Compound 35] are within 1.5-fold of each other in t1/2: 8 min for the first, 11 min for the second.

In the case of `CN[C@H](Cc1c(F)c(F)c(F)c(F)c1F)C(=O)N1CCC[C@H]1C(=O)N[C@@H](CCCNC(=N)N)C(=O)c1nc2ccccc2s1` [Compound 30], the t1/2 is reported as 6 min.

Test: Ex vivo bioavailability assay (i.v. and p.o.)
Design: species or system male rats
Details: rat, p.o. vs i.v.; drug in plasma extrapolated from thrombin inhibition
Description: Bioavailability was determined by an ex vivo assay which incorporated hydrolysis rates from drug administered both i.v. and p.o. In this assay male rats were prepared as described above with a teflon tube implanted in their femoral artery.
A standard curve was generated by adding of drug or vehicle (100 μL) to whole blood (900 μL) followed by incubating (5 min) and centrifuging to obtain plasma. The percentage of thrombin inhibition was calculated by comparing the V0 of the vehicle to that of the drug treated samples. Datum from several runs were normalized with a statistical package (SAS) to generate a standard curve.
The percentage of thrombin inhibition in the treated animals was calculated by comparing the V0 prior to treatment with the V0 obtained from samples collected after treatment. The percent inhibition was applied to the standard curve (generated above) using the statistical package (SAS) and the quantity of drug in the sample was extrapolated.
Bioavailability (Bioavail.) was calculated from the plots of the extrapolated drug in sample vs. time for both i.v. and p.o. administration using the following equation:
%Bioavail. =([…])×(area
under p.o. curve/area under curve i.v.)

In the case of `CN[C@H](Cc1ccccc1)C(=O)N1CCC[C@H]1C(=O)N[C@@H](CCCNC(=N)N)C(=O)c1nc2ccccc2s1` [Compound 1, N-METHYL-D-PHENYLALANYL-N-[4-[(AMINOIMINOMETHYL)AMINO]-1S-[(BENXOTHIAZOL-2- YL)CARBONYL]BUTYL]-L-PROLINAMIDE], the “Bloavail,” value is reported as 1.2%.

Test: Ex vivo i.v. assay for duration of action (time to half plasma elimination)
Details: rat, from slope of Vo vs. time of plasma thrombin inhibition
Description: An ex vivo assay was conducted to determine the duration of action of the compounds of Formula I. For this i.v. assay male rats (Long Evans, 350-500 g) were implanted with a teflon cannulae via the femoral artery while under anesthesia (pentobarbital i.p., 35 mg/kg). […] The animals were allowed to recover for at least 24 h after the surgical procedure.
The test compound was dispersed in water and delivered to the animal (0.25 mL) via the femoral vein. […] A plasma sample was obtained by centrifuging the blood at 10,000 rpm for 5 min. This sample is analyzed for thrombin inhibition using the chromogenic assay, described below.
Datum was collected over a 30 min period and the initial rate of substrate hydrolysis (V0 (mOD/min)) was calculated with an analysis program (Softmax, Molecular Devices).
The time to half plasma elimination (t 1/2) was calculated from the slope of Vo vs. time, using the following equation:

Compared with `CN[C@H](Cc1ccccc1)C(=O)N1CCC[C@H]1C(=O)N[C@@H](CCCNC(=N)N)C(=O)c1nc2ccc(O)cc2s1` [Compound 25], `CNC(C(=O)N1CCC[C@H]1C(=O)N[C@@H](CCCNC(=N)N)C(=O)c1nc2ccccc2s1)c1ccccc1` (some centres unmarked) [Compound 34] is 1.9-fold higher in t1/2: 14 min for the first, 26 min for the second.
